This assay is described as follows: preservative action in foods (e.g. fruit drinks).

`C/C=C/C=C/C(=O)OC(=O)/C=C/C=C/C` [all-E-sorbic anhydride]: the “preservation action relative to sorbic acid or sorbate” value (compared with sorbic acid or sorbate, preservative for foods) was “approximately five times higher”. As for `C/C=C/C=C/C(=O)OC(=O)/C=C/C=C/C` [sorbic anhydride], the “preservative action relative to potassium sorbate” value (compared with e.g. potassium sorbate, preservation of foods) is “about 5 times”.

The values above are taken from US9102613B2, “Method for producing sorbic anhydride and also use thereof as a preservative in foods” (LANXESS DEUTSCHLAND GMBH, priority 2010, dated 2015).
